# Reference: US10370380B2, “Octahydropyrrolo[3,4-c]pyrrole derivatives and uses thereof” (Sunshine Lake Pharma Co., Ltd., priority 2015, dated 2019)
# Assays:
# [1] = Pharmacokinetic evaluation after intravenous or gavage administration to dogs; type: in vivo, Beagle dogs; settings: beagle, dog, in vivo
# Description: The compounds disclosed herein were administered in form of a saline solution containing 5% DMSO, 5% Kolliphor HS 15, 2% (2% HCl) and 88% Saline, or a solution containing 10% DMSO, 10% Kolliphor HS 15 and 80% physiological saline to the subject animals. For intravenous administration, the animals were administered with a dose of 1 mg/kg or 2 mg/kg, and vein blood samples (0.3 mL) were collected at the time points of 0.083, 0.25, 0.5, 1.0, 2.0, 4.0, 6.0, 8.0 and 24 h after drug administration; plasma samples were collected by centrifugation of the vein blood samples at 3000 rpm or 4000 rpm for 10 minutes, and stored at −20° C. or −70° C. For gavage administration, the animals were administered with a dose of 2.5 mg/kg or 5 mg/kg, and vein blood samples (0.3 mL) were collected at the time points of 0.25, 0.5, 1.0, 2.0, 4.0, 6.0, 8.0 and 24 h after drug administration; plasma samples were collected by centrifugation at 3000 rpm or 4000 rpm for 10 minutes, and stored at −20° C. or −70° C. The positive control is suvorexant.
# The above plasma samples were analyzed by the LC-MS/MS system.
# [2] = biological target: T1, humanized OX1 receptor (Homo sapiens, UniProt O43613); experiment: Antagonistic effect on humanized OX1 receptor, calcium flux by fluorescence detection in CHO cells; type: cell-based
# T1 construct: expressed in transfected cells; host or cells: CHO (Chinese hamster ovary) cells
# T1 sequence (O43613 1-425): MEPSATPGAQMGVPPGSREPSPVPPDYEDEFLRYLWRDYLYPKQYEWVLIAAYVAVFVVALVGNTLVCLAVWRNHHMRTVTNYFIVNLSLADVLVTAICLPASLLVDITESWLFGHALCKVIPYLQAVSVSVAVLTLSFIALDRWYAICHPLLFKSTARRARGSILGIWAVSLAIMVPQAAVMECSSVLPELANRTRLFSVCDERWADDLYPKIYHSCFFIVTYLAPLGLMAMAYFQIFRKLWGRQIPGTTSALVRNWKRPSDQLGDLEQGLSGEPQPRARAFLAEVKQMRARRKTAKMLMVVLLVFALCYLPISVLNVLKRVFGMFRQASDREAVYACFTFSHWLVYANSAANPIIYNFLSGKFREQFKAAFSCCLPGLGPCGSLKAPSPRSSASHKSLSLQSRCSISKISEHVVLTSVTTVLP
# Description: The capability of the compounds provided herein to antagonize humanized OX1 receptor expressed in Chinese hamster ovary (CHO) cells was evaluated by the influence of the compounds disclosed herein on calcium flux in cells induced by agonist detected by a method of fluorescence detection. The cells were suspended in DMEM culture medium (invitrogen), and then added to a microplate with an average density of 2×10^4 cells/well. The Hank's balanced salt solution (pH 7.4) containing fluorescent probes (Fluo4 NW, Invitrogen), probenecid (invitrogen), 20 mM hydroxyethyl piperazine acetic sulfuric acid (invitrogen) was added to the above microplate, and then incubated together with the cells at 37° C. for 60 min, further incubated at 22° C. for 15 min. The microplate was placed in a microplate reader (CellLux, PerkinElmer), and to which was added the test compound or reference antagonist or Hank's balanced salt solution, 5 min later, 3 nM of orexin A or Hank's balanced salt solution (as a blank contrast) was added. […] The experimental results were expressed as an inhibition percentage relative to a control group (the group with 3 nM of orexin A).
# The standard reference antagonist is SB334867, and IC50 values were calculated by the dose-effect curve obtained from a series of concentrations of the experimental test.
# [3] = biological target: T2, hERG channel (Homo sapiens, UniProt Q12809); experiment: hERG fluorescence polarization assay (potential of inducing QT interval prolongation); type: binding
# T2 construct: purchased Invitrogen
# T2 sequence (Q12809 whole entry): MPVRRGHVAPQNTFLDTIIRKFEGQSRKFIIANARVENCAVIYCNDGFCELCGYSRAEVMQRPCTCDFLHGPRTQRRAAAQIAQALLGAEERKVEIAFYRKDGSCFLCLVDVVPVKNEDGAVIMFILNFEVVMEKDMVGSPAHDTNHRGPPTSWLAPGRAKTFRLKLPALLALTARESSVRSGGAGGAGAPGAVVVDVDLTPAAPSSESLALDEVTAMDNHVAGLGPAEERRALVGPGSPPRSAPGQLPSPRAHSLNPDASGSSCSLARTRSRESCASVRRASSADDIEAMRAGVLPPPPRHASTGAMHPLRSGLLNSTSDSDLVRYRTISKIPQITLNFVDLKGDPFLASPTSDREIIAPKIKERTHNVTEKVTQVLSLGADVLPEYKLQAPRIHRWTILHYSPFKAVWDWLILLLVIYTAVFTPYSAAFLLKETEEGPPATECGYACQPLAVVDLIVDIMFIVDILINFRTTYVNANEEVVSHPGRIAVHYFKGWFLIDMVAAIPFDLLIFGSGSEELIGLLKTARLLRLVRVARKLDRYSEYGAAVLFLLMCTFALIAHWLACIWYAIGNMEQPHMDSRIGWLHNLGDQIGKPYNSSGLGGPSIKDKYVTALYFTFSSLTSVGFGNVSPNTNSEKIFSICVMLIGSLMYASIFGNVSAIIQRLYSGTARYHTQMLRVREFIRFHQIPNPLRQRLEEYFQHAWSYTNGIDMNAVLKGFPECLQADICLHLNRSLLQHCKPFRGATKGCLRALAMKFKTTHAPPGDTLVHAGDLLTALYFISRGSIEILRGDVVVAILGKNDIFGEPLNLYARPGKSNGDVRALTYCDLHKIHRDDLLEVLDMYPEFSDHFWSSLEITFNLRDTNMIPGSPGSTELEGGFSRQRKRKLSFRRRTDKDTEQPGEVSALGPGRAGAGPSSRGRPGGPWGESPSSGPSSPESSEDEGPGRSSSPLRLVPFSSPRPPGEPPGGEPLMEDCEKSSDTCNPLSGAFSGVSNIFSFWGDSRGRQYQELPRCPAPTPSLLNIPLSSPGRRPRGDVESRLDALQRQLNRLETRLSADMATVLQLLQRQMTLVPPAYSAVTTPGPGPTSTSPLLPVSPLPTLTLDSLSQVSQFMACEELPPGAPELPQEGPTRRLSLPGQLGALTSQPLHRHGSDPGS
# Description: The potential of the compound disclosed herein inducing QT interval prolongation was evaluated by detecting if the compound would block the hERG channel. The specific test method is as follows:
# Precisely weighed compound disclosed herein was dissolved in DMSO to formulate a solution at the highest concentration of 10.0 mM, and then the solution was diluted to a initial concentration of 120.0 μM with hERG FP Assay Buffer (Invitrogen); the hERG Tracer Red stock solution (Invitrogen) and the positive control E-4031 stock solution (Invitrogen) were respectively diluted to initial concentrations of 4.0 nM and 120.0 μM with hERG FP Assay Buffer (Invitrogen). […]
# The above-mentioned solution of the compound disclosed herein and E-4031 at the initial concentration of 120 μM were respectively diluted with hERG FP Assay Buffer 5-fold in series to provide 8 concentration of 120.0 μM, 24.0 μM, 4.8 μM, 960.0 nM, 192.0 nM, 38.4 nM, 7.7 nM and 1.5 nM. […] After that, the 384-well plate was put into an oscillator (PHMP-4, Grant-sio), in 25° C., 250 rpm, to incubate for 4 hours, and the fluorescence polarization values were measured by multi-function microplate reader (PHERAStarFS, BMG LABTECH) and corrected with the minimum and maximum fluorescence polarization values of E-4031, and the IC50 of the compound disclosed herein was calculated by GraphPad software. […]
smiles,measurement,setting,value
"Cc1ccc(-n2nccn2)c(C(=O)N2CC3CN(c4nc5cc(Cl)ccc5o4)CC3C2)c1 (stereo not drawn) [Example 1, (5-(5-chlorobenzo[d]oxazol-2-yl)hexahydropyrrolo[3,4-c]pyrrol-2(1H)-yl)(5-methyl-2-(2H-1,2,3-triazol-2-yl)phenyl)methanone]",AUC(0-inf),"[1]; iv, 1 mg/kg",2710 ng·h/mL
same,AUC(0-t),"[1]; iv, 1 mg/kg",2150 ng·h/mL
same,Cmax,"[1]; iv, 1 mg/kg",821 ng/mL
same,MRT inf,"[1]; iv, 1 mg/kg",4.97 h
same,Vd,"[1]; iv, 1 mg/kg",1.83 L/kg
same,clearance,"[1]; iv, 1 mg/kg",6.14 mL/min/kg
same,half-life,"[1]; iv, 1 mg/kg",3.73 h
same,AUC(0-inf),"[1]; po, 5 mg/kg",16300 ng·h/mL
same,AUC(0-t),"[1]; po, 5 mg/kg",15900 ng·h/mL
same,Cmax,"[1]; po, 5 mg/kg",1410 ng/mL
same,F,"[1]; po, 5 mg/kg",147.6%
same,MRT inf,"[1]; po, 5 mg/kg",6.84 h
same,half-life,"[1]; po, 5 mg/kg",4.41 h
same,IC50,[2],0.604 µM
same,IC50,[3],3.28 µM
